US20220031684A1, “PROPHYLACTIC EFFICACY OF SEROTONIN 4 RECEPTOR AGONISTS AGAINST STRESS” (THE TRUSTEES OF COLUMBIA UNIVERSITY IN THE CITY OF NEW YORK, priority 2019, published 2022)
Where a name gives a salt, the structure may show the parent alone.

Tests used:
BALB/cJRj mice [1] = assay: Elevated plus maze (EPM), acute anxiolytic-like effect; assay type: in vivo
Description: (§1) RS67333 (1.5 mg/kg, i.p.), diazepam (1.5 mg/kg, i.p.), fluoxetine (18 mg/kg, i.p.) were injected 45 min before testing in the Elevated Plus Maze (EPM), the Novelty Suppressed Feeding (NSF) or the Open Field (OF) in three independent cohorts of male BALB/cJRj mice.
(§2) To ensure the selectivity of the anxiolytic-like effects of RS67333, in a new cohort of male BALB/cJRj mice, GR125487 (1.0 mg/kg, i.p.) dissolved in 0.9% NaCl solution, was injected 15 minutes before RS67333 administration (1.5 mg/kg, i.p.). EPM or NSF occurred 45 min after RS67333 administration (A-S1). Behavioral consequences of the co-administration of GR125487+RS67333 were compared to RS67333 alone, diazepam (1.5 mg/kg, i.p.) fluoxetine (18 mg/kg, i.p.) and vehicle groups (0.9% saline solution, i.p.).
(§3) For mPFC drug infusion, two bilateral cannulae (75 μm-diameter silica capillary tubing inserted in 27G stainless steel catheter) were implanted in the mPFC [stereotaxic coordinates in mm from bregma: A=+2.10, L=±0.50, V=−2.60, A, anterior; L, lateral; and V, ventral, according to (A-S10)] under anesthesia (chloral hydrate, 400 mg/kg, i.p.). […] Diazepam (1.5 mg/kg) was used as a positive control.
In a new cohort of male BALB/cJRj mice, p-CPA was administered twice daily (at 0900 and 1700 h) for 3 consecutive days. RS67333 ([…]) and diazepam ([…]) were then intra-mPFC administered 24 h after the final p-CPA administration and behavioral test (EPM) occurred 45 minutes after local infusion.
The EPM is a widely used behavioral assay for rodents and it has been validated to assess the anti-anxiety effects of pharmacological agents (A-S11). This test was performed as described by (A-S1). The maze is a plus-cross-shaped apparatus, with two open arms and two arms closed by walls linked by a central platform 50 cm above the floor. Mice were individually put in the center of the maze facing an open arm and were allowed to explore the maze during 5 min for the behavioral consequences of an acute systemic administration or mPFC infusion and during 6 min for the optogenetic experiments. The time spent in and the numbers of entries into the open arms were used as an anxiety index. All parameters were measured using a videotracker (EPM3C, Bioseb, Vitrolles, France).

BALB/cJRj mice [2] = assay: Novelty suppressed feeding (NSF), acute anxiolytic-like effect; assay type: in vivo
Description: as §1, §2, §3
The NSF is a conflict test that elicits competing motivations: the drive to eat and the fear of venturing into the center of a brightly lit arena. The latency to begin eating is used as an index of anxiety/depression-like behavior, because classical anxiolytic drugs as well as chronic antidepressants decrease this measure. The NSF test was carried out during a 10 min period as previously described (A-S12). Briefly, the testing apparatus consisted of a plastic box (50×50×20 cm), the floor of which was covered with approximately 2 cm of wooden bedding. Twenty-four hours prior to behavioral testing, all food was removed from the home cage. At the time of testing, a single pellet of food (regular chow) was placed on a white paper platform positioned in the center of the box. Each animal was placed in a corner of the box, and a stopwatch was immediately started. The latency to eat (defined as the mouse sitting on its haunches and biting the pellet with the use of forepaws) was timed. Immediately afterwards, the animal was transferred to its home cage, and the amount of food consumed by the mouse in the subsequent 5 min was measured, serving as a control for change in appetite as a possible confounding factor.

[3] = Chronic corticosterone (CORT) model: body weight; assay type: in vivo, mice; conditions: male C57BL/6NTac; Flx 18 mg/kg/day in drinking water or RS-67,333 1.5 mg/kg/day in osmotic minipumps for 3 weeks prior to CORT
Description: This chronic CORT elevation dysregulates the hypothalamic-pituitary-adrenal axis (HPA) in a manner similar to that observed in clinical depression. The dose and duration of CORT treatment was selected based on previous studies. CORT (35 μg/ml, equivalent to about 5 mg/kg/day) dissolved in 0.45% hydroxypropyl-o-cyclodextrin (0-CD) or vehicle (VEH) (0.45% j-CD) was available ad libitum in the drinking water in opaque bottles to protect it from light. VEH- and CORT-treated water was changed every 3 days to prevent possible degradation. Contextual Fear Conditioning (CFC): A 3-shock CFC procedure was administered as previously published. Briefly, mice were placed into context A and administered 3 2-s shocks (0.75 mA) at 180 s, 240 s or 300 s following placement into context A. Mice were removed from the context 15 s following the termination of shock (at 317 s). For context retrieval, mice were placed back into context A for 300 s. Electrophysiology: Electrophysiology was conducted as previously described. Statistical Analysis: Results from data analyses are expressed as means±SEM. Alpha was set to 0.05 for all analyses. Data were analyzed using GraphPad Prism v7.0 or v8.0. For all experiments, unless otherwise noted, one- or two-way ANOVAs with repeated-measures were applied to the data as appropriate. […] Videos were scored using ANY-maze behavior tracking software (Stoelting, Wood Dale, Ill.). […]

C57BL/6NTac mice = assay: Elevated plus maze (EPM) in CORT model; assay type: in vivo; conditions: male C57BL/6NTac, Flx 18 mg/kg/day or RS-67,333 1.5 mg/kg/day for 3 weeks prior to CORT
Description: This chronic CORT elevation dysregulates the hypothalamic-pituitary-adrenal axis (HPA) in a manner similar to that observed in clinical depression. The dose and duration of CORT treatment was selected based on previous studies. CORT (35 μg/ml, equivalent to about 5 mg/kg/day) dissolved in 0.45% hydroxypropyl-o-cyclodextrin (0-CD) or vehicle (VEH) (0.45% j-CD) was available ad libitum in the drinking water in opaque bottles to protect it from light. VEH- and CORT-treated water was changed every 3 days to prevent possible degradation. Contextual Fear Conditioning (CFC): A 3-shock CFC procedure was administered as previously published. Briefly, mice were placed into context A and administered 3 2-s shocks (0.75 mA) at 180 s, 240 s or 300 s following placement into context A. Mice were removed from the context 15 s following the termination of shock (at 317 s). For context retrieval, mice were placed back into context A for 300 s. Electrophysiology: Electrophysiology was conducted as previously described. Statistical Analysis: Results from data analyses are expressed as means±SEM. Alpha was set to 0.05 for all analyses. Data were analyzed using GraphPad Prism v7.0 or v8.0. For all experiments, unless otherwise noted, one- or two-way ANOVAs with repeated-measures were applied to the data as appropriate. Significant main effects and/or interactions were followed by Fisher's PLSD post hoc analysis or unpaired t-tests. Drugs: All drugs were prepared in physiological saline and all injections were administered intraperitoneally (i.p.) in volumes of 0.1 cc per […] body weight unless otherwise noted. Fluoxetine hydrochloride (Flx): Flx (BioTrend Chemicals AG, BG197, Zurich, Germany) was administered in the drinking water (18 mg/kg/day) for 3 weeks before the start of CORT. […] (R,S)-ketamine (K): (R,S)-ketamine (Ketaset III, Ketamine HCl injection, Fort Dodge Animal Health, Fort Dodge, Iowa) was administered in a single dose at 30 mg/kg of body weight 1 week before the start of CFC. […] PF-04995274: PF-04995274 (Sigma, Catalog No. 1331782-27-4, St. Louis, Mo.) was administered a single dose at 3 or 10 mg/kg of body weight 1 week before the start of CFC. PF-04995274 was dissolved in saline using an ultrasonic homogenizer (BioLogics, Model 3000, Manassas, Va.). Osmotic minipump implantation: ALZET osmotic minipumps (Model 2004, […], 28 days) were implanted subcutaneously under isoflurane anesthesia as previously described [S2]. Osmotic minipumps were rotated under the skin two to three times per week. Behavioral Assays: All experiments were approved by the Institutional Animal Care and Use Committee (IACUC) at the New York Psychiatric Institute (NYSPI). […] Videos were scored using ANY-maze behavior tracking software (Stoelting, Wood Dale, Ill.). […]

[4] = GR125487 1 mg/kg i.p. 15 min before RS67333 1.5 mg/kg i.p.

| SMILES | RS67333-induced increase in time and percent time spent in the open arms (EPM) (BALB/cJRj mice [1]; [4]) | RS67333-induced increase of ambulatory distance in the open arms divided by total distance (EPM) (BALB/cJRj mice [1]; [4]) | effect of RS67333 on the latency to feed (NSF) (BALB/cJRj mice [2]; [4]) | CORT-induced increase in body weight [3] | time spent in the open arms of the EPM vs VEH+Veh (C57BL/6NTac mice) | entries into the open arms of the EPM vs CORT+Veh (C57BL/6NTac mice; listed as Flx, hydrochloride) | anxiety-like behavior (BALB/cJRj mice [1]; acute systemic administration, fluoxetine 18 mg/kg i.p.) | latency to feed (NSF) vs vehicle (BALB/cJRj mice [2]; male BALB/cJRj, i.p. 45 min before testing, RS67333 1.5, diazepam 1.5, fluoxetine 18 mg/kg) |
| --- | --- | --- | --- | --- | --- | --- | --- | --- |
| COc1[nH]c2ccc(F)cc2c1C(=O)OCC1CCN(CCNS(C)(=O)=O)CC1.NS(=O)(=O)O [GR125487, 5-Fluoro-2-methoxy-[1-[2-[(methylsulfonyl)amino]ethyl]-4-piperidinyl]-1H-indole-3-methylcarboxylate sulfamate] | prevented | prevented | occluded | – | – | – | – | – |
| CNCCC(Oc1ccc(C(F)(F)F)cc1)c1ccccc1 (centres unmarked) [fluoxetine, Fluoxetine hydrochloride] | – | – | – | attenuated | did not alter | significantly more entries | did not affect anxiety-like behavior | anxiogenic-like effect |
